Measurements as given in patent EP4043037A1, “CELLULAR HYDRATION COMPOSITIONS CONTAINING CYCLODEXTRINS” (Eastpond Laboratories Limited, priority 2010, dated 2012).

Assays:
[1] = NIR spectroscopy of water bonding with cyclodextrin additives; format: physicochemical
Procedure: Hydration bond energies in pure waters and solutions of the same waters containing cyclodextrin compounds were assayed using IR spectroscopy in the near and middle infrared ranges. To record linear signals throughout an entire wavelength range, attenuation from water absorbance was minimized with a short optical length cuvette.
NIR range spectra were registered on a FOSS NIR Systems, Inc. 6500 spectrometer and Sample Transport Module (STM) using a 1 mm-es cuvette. […]
Three samples of water were used in the present study. A first water sample (USA I) was obtained from the U.S. and was purified by reverse osmosis, carbon filtration, ultraviolet light exposure, membrane filtration to 0.2 micron absolute, and ozonation. A second water sample (USA II) was also obtained from the U.S. A third water sample (BP I) was obtained from Budapest, Hungary.
The following cyclodextrins were added to the above described water samples at a concentration range of 0.1% - 5% w/v: • α-cyclodextrin (αCD also denoted as ACD), Lot. No. CYL-2322. • β-cyclodextrin (βCD also denoted as BCD). Lot. No. CYL-2518/2. • γ-cyclodextrin (γCD also denoted as GCD), Lot. No. CYL-2323. • 2-hydroxypropyl-β-cyclodextrin (HPβCD, HPBCD), DS^∗ = 3.5, Lot. No. CYL-2232. • 2-hydroxypropyl-γ-cyclodextrin (HPCD, HPGCD), DS^∗ = 4.8, Lot. No. CYL-2258. • carboxymethyl-β-cyclodextrin (CMBCD), Lot. No. CYL-2576. • quaternary-ammonium-β-cyclodextrin (QABCD).

C. elegans nematodes = test: C. elegans lifespan in media with additives; format: in vivo; conditions: for Animals alive, % of initial (N=50): derivatized cyclodextrin 0.1% w/v in media, USA 1 water; for Animals alive, (N= % of initial =50): parent cyclodextrin 0.1% w/v in media, USA I water; for number of animals surviving to old ages: after day 15, 0.1 % w/v; for number of animals surviving to old ages / effect on C. elegans survival: result in words; for effect on C. elegans survival: added to culture media
Procedure: C. elegans nematodes were grown in petri-type dishes containing normal nutrient liquid media prepared alternatively with USA 1 water (described in Example 2) lacking any further additive component (control) or the same water supplemented with a parent α-, β-, or γ-cyclodextrin, and/or a bioactive agent, as an active component of cellular hydration. Fifty ⊥ 3 worms were transferred to each dish. Each condition was repeated in triplicate. Experiments were repeated for USA II and BP I waters described in Example 2.
Water additives: A. Addition of parent α-, β- and γ-cvclodcxtrins. B. Addition of L-arginine and nicotinamide. C. Addition of inclusion complexes of cyclodextrins with L-arginine and nicotinamide.

[2] = tested on: Wheat seeds (Triticum aestivum); test: Wheat seed germination in water with additives; format: in vivo
Procedure: For each condition, ten seeds were placed in continuous water contact in a Petri-type dish kept at 25C in 12 hr light/dark cycles. Photometric images were recorded on days 1 to 6 after seeding. The percentage of seeds germinated was calculated and compared as a function of time and of the applied additive concentrations.
Water samples for seed germination were used alone with no additive, or containing cyclodextrins, or containing clathrate inclusion complexes of cyclodextrin with L-arginine or with nicotinamide (both obtained from Sigma Chemical Co.; St. Louis, MO), or with L-carnitine (from Lonza AG; Switzerland). […] Additive solutions were prepared fresh on the day of germination start.
Germination kinetics in control and additive-modified water under identical conditions were quantified as the percentage of the seeds having a sprout. Each determination consisted of 100 seeds for each parameter. Results are reported in Table 1, below, and in FIGS. 11-13.

[3] = wavelength region 900-1200 nm (FIG. 7)
[4] = day 0, additive 0.5% w/v in USA 1 water, Table 2, percentage of the seeds having a sprout
[5] = day 0, additive 0.5% w/v in USA I water, Table 1
[6] = day 1, additive 0.5% w/v in USA 1 water, Table 2, percentage of the seeds having a sprout
[7] = day 1, additive 0.5% w/v in USA I water, Table 1
[8] = day 2, additive 0.5% w/v in USA 1 water, Table 2, percentage of the seeds having a sprout
[9] = day 2, additive 0.5% w/v in USA I water, Table 1
[10] = day 3, additive 0.5% w/v in USA 1 water, Table 2, percentage of the seeds having a sprout
[11] = day 3, additive 0.5% w/v in USA I water, Table 1
[12] = day 4, additive 0.5% w/v in USA 1 water, Table 2, percentage of the seeds having a sprout
[13] = day 4, additive 0.5% w/v in USA I water, Table 1

water-bond interactions, second-derivative NIR spectra ([1]; 1200-1500 nm (FIG. 8)) | water-bond interactions, second-derivative NIR spectra ([1]; 1620-1710 nm (FIG. 9)) | water-bond interactions, second-derivative NIR spectra ([1]; 2170-2370 nm (FIG. 10)) | water-bond interactions, second-derivative NIR spectra [1, 3] | Compound | Animals alive, % of initial (N=50) (C. elegans nematodes; life span 10 days) | Animals alive, % of initial (N=50) (C. elegans nematodes; life span 15 days) | Animals alive, % of initial (N=50) (C. elegans nematodes; life span 18 days) | Animals alive, (N= % of initial =50) (C. elegans nematodes; life span 10 days) | Animals alive, (N= % of initial =50) (C. elegans nematodes; life span 15 days) | Animals alive, (N= % of initial =50) (C. elegans nematodes; life span 18 days) | further results
further significantly modified | significantly modified | significantly modified | further significantly modified | carboxymethyl-β-cyclodextrin [Carboxymethyl-β-Cydodextrin] | 94 % of initial | 11 % of initial | 0 % of initial |  |  |  | 
 |  |  |  | OC[C@H]1O[C@@H]2O[C@H]3[C@H](O)[C@@H](O)[C@@H](O[C@H]4[C@H](O)[C@@H](O)[C@@H](O[C@H]5[C@H](O)[C@@H](O)[C@@H](O[C@H]6[C@H](O)[C@@H](O)[C@@H](O[C@H]7[C@H](O)[C@@H](O)[C@@H](O[C@H]8[C@H](O)[C@@H](O)[C@@H](O[C@H]1[C@H](O)[C@H]2O)O[C@@H]8CO)O[C@@H]7CO)O[C@@H]6CO)O[C@@H]5CO)O[C@@H]4CO)O[C@@H]3CO [β-Cydodextrin, β-cyclodextrin] |  |  |  | 100 % of initial | 18 % of initial | 0 % of initial | 
significantly modified | significantly modified | significantly modified | further significantly modified | CC(O)COC[C@H]1O[C@@H]2O[C@H]3[C@H](O)[C@@H](O)[C@@H](O[C@H]4[C@H](O)[C@@H](O)[C@@H](O[C@H]5[C@H](O)[C@@H](O)[C@@H](O[C@H]6[C@H](O)[C@@H](O)[C@@H](O[C@H]7[C@H](O)[C@@H](O)[C@@H](O[C@H]8[C@H](O)[C@@H](O)[C@@H](O[C@H]1[C@H](O)[C@H]2O)O[C@@H]8COCC(C)O)O[C@@H]7COCC(C)O)O[C@@H]6COCC(C)O)O[C@@H]5COCC(C)O)O[C@@H]4COCC(C)O)O[C@@H]3COCC(C)O (stereo partly drawn) [HP-β-Cyclodextrin, 2-hydroxypropyl-β-cyclodextrin] | 96 % of initial | 17 % of initial | 0 % of initial |  |  |  | 
 |  |  |  | α-cyclodextrin |  |  |  | 100 % of initial | 20 % of initial | 2 % of initial | number of animals surviving to old ages (C. elegans nematodes): significantly increased; wheat seed germination rate [2, 4]: 0%; wheat seed germination rate [2, 5]: 0 percentage of total seeds; wheat seed germination rate [2, 6]: 11%; wheat seed germination rate [2, 7]: 0 percentage of total seeds; wheat seed germination rate [2, 8]: 18%; wheat seed germination rate [2, 9]: 48 percentage of total seeds; wheat seed germination rate [2, 10]: 68%; wheat seed germination rate [2, 11]: 70 percentage of total seeds; wheat seed germination rate [2, 12]: 92%; wheat seed germination rate [2, 13]: 85 percentage of total seeds
significantly modified | significantly modified | further significantly modified | significantly modified | 2-hydroxy-3-N,N,N-trimethylamino)propyl-β-cyclodextrin chloride [Quaternaryammonium-β-Cyclodextrin] | 98 % of initial | 13 % of initial | 2 % of initial |  |  |  | effect on micro-structure of hydrogen bonds in bulk water (NIR spectral changes) ([1]; comparison among cyclodextrin-treated water samples (FIGS. 9 and 10)): largest
 |  |  |  | N=C(N)NCCC[C@H](N)C(=O)O [L-Arg, L-arginine, reference compound] |  |  |  |  |  |  | effect on C. elegans survival (C. elegans nematodes): little effect; wheat seed germination rate [2, 5]: 0 percentage of total seeds; wheat seed germination rate [2, 7]: 0 percentage of total seeds; wheat seed germination rate [2, 9]: 30 percentage of total seeds; wheat seed germination rate [2, 11]: 45 percentage of total seeds; wheat seed germination rate [2, 13]: 60 percentage of total seeds
 |  |  |  | NC(=O)c1cccnc1 [nicotinamide, reference compound] |  |  |  |  |  |  | effect on C. elegans survival (C. elegans nematodes): little effect; wheat seed germination rate [2, 4]: 0%; wheat seed germination rate [2, 6]: 0%; wheat seed germination rate [2, 8]: 4%; wheat seed germination rate [2, 10]: 10%; wheat seed germination rate [2, 12]: 60%
 |  |  |  | γ-cyclodextrin |  |  |  | 100 % of initial | 13 % of initial | 2 % of initial | number of animals surviving to old ages (C. elegans nematodes): significantly increased
